According to ChEMBL document CHEMBL5614430, “Discovery, synthesis and SAR of 2-acyl-1-biarylmethyl pyrazolidines, dual orexin receptor antagonists designed as fast and short-acting sleeping drugs” (Bioorg Med Chem, 2024):

Key:
[1] = in vitro; conditions: dog, MDCK-MDR1, Papp
[2] = physchem; conditions: buffer, pH 7.4
[3] = in vivo; conditions: Beagle, dog, po, 10 mg/kg
[4] = in vivo; conditions: Beagle, dog, iv, 1 mg/kg
[5] = in vivo; conditions: Beagle, dog, po, 10 mg/kg; remark: listed apart in the source
[6] = in vivo; conditions: Beagle, dog, po, 10 mg/kg; remark: listed apart in the source
[7] = in vivo; conditions: Beagle, dog, iv, 1 mg/kg; remark: listed apart in the source
[8] = in vivo; conditions: Beagle, dog, po, 10 mg/kg; remark: listed apart in the source

Papp A→B [1]	logD [2]	Structure (SMILES)	also measured
17 ×10⁻⁶ cm/s	3.8	COc1cc(CN2[C@H]3c4ccccc4OC[C@H]3CN2C(=O)C2CCCCC2)cc(OC)c1	
		Cc1ccc(-n2nccn2)c(C(=O)N2CCCN2Cc2ccn(-c3ccccc3)n2)c1	bioavailability [3]: 10%; Vd [4]: 0.8 L/kg; AUC [5]: 1040 ng·h/mL; Tmax [6]: 3.55 h; clearance [7]: 17 mL/min/kg; Cmax [8]: 287 ng/mL
	> 4.1	O=C(C1CCCCC1)N1C[C@@H]2COc3ccccc3[C@@H]2N1Cc1cccc(-c2ncon2)c1	
0.78 ×10⁻⁶ cm/s	2.8	Cn1ccc(C(=O)N2C[C@@H]3COc4cc(F)ccc4[C@@H]3N2Cc2cccc(-c3ncccn3)c2)n1 (racemic)	
9.3 ×10⁻⁶ cm/s	3.3	Cn1ccc(C(=O)N2C[C@@H]3CCc4cc(F)ccc4[C@@H]3N2Cc2cccc(-c3ncccn3)c2)n1 (racemic)	
